# Assay results from patent US20120053235A1, “Dihydromyricetin as an IKK-beta inhibitor used for treatment of arthritis, cancer and autoimmune conditions, and other diseases or disorders” (HONG KONG BAPTIST UNIVERSITY, priority 2010, published 2012).
# Assays:
# [1] = tested on: IL-2 production in human T-cell; assay: IL-2 ELISA of culture supernatants of stimulated T cells; type: cell-based; set-up: dose or concentration left out as unconfirmed; conditions: DMY; P/I or anti-OKT-3/anti-CD28 for 48 hours; FIGS. 3A and 3B
# Procedure: The cells (1×10^5/well) were incubated in the presence or absence of DMY for 2 hours at the indicated concentrations, and then the cells were stimulated with P/I or anti-OKT-3/anti-CD28 for 48 hours. The cell-free culture supernatants were collected, and then the concentration of IL-2 in the supernatants was determined by ELISA method.
# [2] = tested on: IKK-α/β phosphorylation in human T lymphocytes; assay: Measurement of the phosphorylation of IKK α/β (Western blot); type: cell-based; conditions: mediated by PMA/ionomycin or anti-OKT-3/anti-CD28; FIG. 4B
# Procedure: Human T lymphocytes (4×10^6/well) were pretreated with DMY in different concentrations for 60 minutes and then the cells were stimulated with PMA/ionomycin for 30 minutes.
# The whole-cell lysates were prepared by lysing the harvested T cells with lysis buffer (50 mM Tris-HCl, pH 7.5, 250 mM NaCl, 5 mM EDTA, 1 mM DTT, 1% Triton, 50 mM NaF, 1 mM sodium orthovanadate, 0.5 mM PMSF and 1× protease inhibitor mix, Roche). Protein concentrations were determined by using Bio-Rad Protein assay (Bio-Rad Laboratories, Inc. Hercules, Calif.). Equal amount of nuclear proteins or whole-cell lysates were analyzed by 10% SDS-polyacrylamide gel electrophoresis (SDS-PAGE). After electrophoresis, the proteins were electro-transferred to the nitrocellulose membranes. After proteins were transferred, the membranes were blocked by 5% dried milk for 60 minutes and then washed three times for 5 minutes in washing interval with TBS-T (Tween-20, 0.05%). The membranes were then incubated with phosphorylation-IKK-α/β primary antibodies overnight at 4° C. and then washed three times with TBS-T. Afterwards, the membranes were incubated again with HRP-conjugated secondary antibodies for 60 minutes. The blots were developed using the enhanced chemiluminescence (ECL, Amersham Bioscience).
# [3] = tested on: c-Fos nuclear localization in HeLa cells; assay: Nuclear localization of c-Fos (immunofluorescence); type: cell-based; conditions: DMY 2 hours then PMA plus ionomycin 2 hours, FIGS. 7 and 8
# Procedure: HeLa cells (1×10^5) were seeded on the 6-well plates with cover slips and cultured overnight. The cells were treated with DMY for 2 hours at 37° C and then stimulated with or without 20 ng/ml PMA plus 1 μM ionomycin for another 2 hours. After stimulation, the cells were fixed with 4% paraformaldehyde for 15 minutes at room temperature and permeabilized by 0.1% Triton X-100 and then stained with phalloidin (Invitrogen) for 3 minutes. The cells were incubated with c-Fos antibody for 2 hour after being stained with phalloidin, and the cells were then incubated with FITC-linked secondary antibody for 1 hour after being washed with PBS for 3 times. The slides were dried in air and mounted onto the glass slides.
# [4] = tested on: ear edema induced by dinitrofluorobenzene in male ICR mice; assay: Delay-type hypersensitivity test (DNFB-induced ear edema); type: in vivo
# Procedure: Male mice were sensitized through topical application of 20 μl of 0.5% (v/v) dinitrofluorobenzene (DNFB) in acetone onto the shaved abdomen on days 1 and 2. Challenge was then preformed in day 6 by applying DNFB (20 μl, 0.5%, v/v) on the left inner and outer ear surfaces of mice. DMY (at doses of 0.5, 1, 2 mg/ear) and DEX (0.025 mg/ear, Sigma-Aldrich) dissolved in acetone was topically applied (20 μl) to the ears at 2nd, 24th, 48th, and 72nd hour after the challenge. The mice were sacrificed by cervical dislocation, and then the same area of the ears was punched from each animal. Spleens and thymuses were isolated and weighted. The ear edema was calculated according to the differences between the weight of the right and left ears. The control group was treated only with DNFB.
# [5] = DTHT mice, topical treatment, FIGS. 9B and C
smiles,measurement,setting,value
"O=C1c2c(O)cc(O)cc2O[C@H](c2cc(O)c(O)c(O)c2)[C@H]1O [DMY, dihydromyricetin]",production of IL-2,[1],suppress the production of IL-2
same,IKK-α/β phosphorylation,[2],inhibit IKK-ca/3 phosphorylation
same,c-Fos nuclear localization,[3],suppress c-Fos nuclear localization
same,body weight,"[4]; DTHT mice, topical treatment",only a small decrease
same,spleen weight,[4]; [5],increase
same,thymus weight,[4]; [5],increase
same,ear edema,"[4]; topical, 0.5, 1, 2 mg/ear at 2nd, 24th, 48th, 72nd hour after challenge, FIG. 9A",significantly and dose-dependently inhibit the ear edema
